Measurements as given in patent publication US4451485A, “Treatment of cardio-vascular diseases with 3-(2,2,2-trimethylhydrazinium) propionate dihydrate” (Institu Organicheskogo Sinteza Akademii Nauk Latviiskoi SSR, priority 1981, dated 1984).

Key:
fruit flies = experiment: Mutagenous activity on fruit flies; format: in vivo; conditions: dihydrate
[1] = Clinical tests on patients with various kinds of pathology; conditions: human, in vivo
From the text: The pharmaceutical preparation according to the present invention can be useful in the treatment of such diseases as heart insufficiency, valvular defects, myocarditises, cardiosclerosis, ischemic heart disease, rhythm disturbances of different genesis. […] The preparation according to the present invention has been tested in experiments on animals and in clinics on patients with various kinds of pathology.
The preparation has been studied on more than 65 patients suffering from various pathology of the cardio-vascular systems such as heart rhythm disturbances (arrhythmia) of different etiology, ischemic heart disease, stenocardia, and atherosclerosis.

[2] = Effect on Strophanthin K arrhythmia in narcotized guinea pigs (500 μg/kg); format: in vivo
Method: After the administration of the preparation at a dose of 5 mg/kg the regular synusal rhythm was retained for 12±5 minutes on the average, whereafter arrhythmia was gradually renewed, but it could be again eliminated by a repeated administration of the preparation at a dose of 2-5 mg/kg. In such cases the sinusal rhythm was retained for 15 to 30 minutes and in the majority of tests arrhythmia never renewed. Furthermore, an experiment was carried out on narcotized guinea pigs with a mass of 600-710 g to which Strophanthin -K was administered into the femoral vein at a total dose of 500 μg/kg.
The preparation based on 3-(2,2,2-trimethylhydrazonium)propionate was intravenously administered against the background of arrhythmia in the test group.
The graph illustrates the recording of ECG of a guinea pig.
The effect of compound I on Strophanthin arrhythmia in guinea pigs.

[3] = Aconitine arrhythmia in rats after repeated peroral administration; format: in vivo, white rats
Method: The antiarrhythmic activity was studied in experiments on white rats of both sexes with a mass of 190 to 230 g narcotized by urethane. An ECG was recorded for these animals. Into the femoral vein of the rats, aconitine was introduced at a constant rate and its arrhythmogenic and lethal doses were determined along with their variation under the protective effect of the preparation according to the present invention.

in vivo = experiment: in vivo; parameters: species or system white mice; conditions: white mice
[4] = Clinical study in patients with ischemic heart disease, peroral, 4 weeks; format: in vivo, men and women (patients with IHD); conditions: for hemodynamic impact: before treatment 14.6 + 1.2; for pulse pressure: before treatment 47.6 + 0.6; for isometric contraction: before treatment 53 + 2; for asynchron. contraction: before treatment 56 + 2; for distolic pressure: before treatment 68.2 + 0.6; for heart rate: before treatment 72.3 + 1.5; for average dynamic pressure: before treatment 89.7 + 1.2; for tension period: before treatment 109 + 4; for lateral systolic pressure: before treatment 115.8 + 0.5; for final systolic pressure: before treatment 130.4 + 2.0; for expulsion phase: before treatment 222 + 4; for rate of heart relaxation: before treatment 250 + 9; for volume of heart ejection: before treatment 315 + 15; for diastol.: before treatment 499 + 14; for involution period: before treatment 830 + 26; for rate of pressure raise: before treatment 1,188 + 30
From the text: The following hemodynamic parameters were studied: rate of the heart's beat (RHB), electrocardiogram (ECG), all types of arterial pressure with the curve recording on a Mechanocardiograph 063 (Savitsky's model), beat ejection according to the Wremser-Ranke method, speed of pulse wave propagation, phase analysis of the left ventricle systole on an instrument Mingograph M-34, as well as amplitude time parameters (volume rate of ejection VRE, speed of pressure growth (SPG), rate of heart relaxation (RHR)).
For evaluation of contraction properties of myocardium separately during its systolic and diastolic periods of contraction there were used amplitude-time characteristics rate of heart ejection (RHE), rate of pressure rise (RPR) and rate of heart relaxation (RHR).
The rate of heart ejection (RHE) is determined by the formula: (BV6/E), wherein BV--beat volume in ml, E--time of the expulsion phase in seconds.
The rate of pressure rise is determined by the formula: [formula] wherein DP--diastolic pressure in mm, Hg, 5--conventional value of the final diastolic pressure in the aorta, IC--isometric contraction. RPR characterized contractive properties of the myocardium during the period of closed valves and its ability to rapidly surpass the value of pressure in the aorta for opening of the aortic valves.
The rate of heart relaxation (RHR) characterizes activity of the myocardium at the moment of diastole and is determined by the formula [formula] wherein SP--systolic pressure in the brachial artery in mm Hg, 5--conventional value of the final diastolic pressure in the aorta, D--duration of the diastolic period in seconds.

C[N+](C)(C)NCCC(=O)[O-] [3-(2,2,2-trimethylhydrazinium)propionate]
Mutagenous activity (fruit flies): does not have mutagenous activity | Therapeutic effects in paroxysmal tachycardia, fibrillation, A-V block and paroxysms [1]: positive, though less pronounced, effects | Therapeutic results in chronic decompensation (rheumatic valvular defects) and acute circulatory insufficiency (myocardial infarction) [1]: Especially pronounced therapeutic results | Effect on atrio-ventricular block ([2]; 2-5 mg/kg, timely administration, some cases): possible to also eliminate the atrio-ventricular block | Changes in the complex QRST and atrial fibrillation ([2]; intravenous): The changes in the complex QRST were reduced and the atrial fibrillation disappeared | Effect on ventricular arrhythmia ([2]; intravenous): temporarily arrested the ventricular arrhythmia | Time to arrest of ventricular arrhythmia ([2]; intravenous): 2 to 3 min | Aconitine dose variation, arrhythmogenic ([3]; 25 mg/kg perorally, 1 week): 38.7% | Aconitine dose variation, lethal ([3]; 25 mg/kg perorally, 1 week): 27.6% | Aconitine dose variation, arrhythmogenic ([3]; 25 mg/kg perorally, 2 weeks): 42.26% | Aconitine dose variation, lethal ([3]; 25 mg/kg perorally, 2 weeks): 24.7% | Aconitine dose variation, arrhythmogenic ([3]; 100 mg/kg perorally, 1 week): 55.6% | Aconitine dose variation, lethal ([3]; 100 mg/kg perorally, 1 week): 16.2% | Aconitine dose variation, arrhythmogenic ([3]; 100 mg/kg perorally, 2 weeks): 34.6% | Aconitine dose variation, lethal ([3]; 100 mg/kg perorally, 2 weeks): 9.7% | Protective effect against aconitine ([3]; peroral): pronounced protective effect | LD50 (in vivo; mouse, in vivo, intravenous (Table 2)): 4430 mg/kg | Acute toxicity, LD50 (in vivo; intravenous (Table 5)): 4,430 mg/kg | hemodynamic impact ([4]; 1st week): 18.2 + 1.0 | pulse pressure ([4]; 1st week): 46.5 + 1.1 | isometric contraction ([4]; 1st week): 49 + 3 millisec. | asynchron. contraction ([4]; 1st week): 55 + 4 | distolic pressure ([4]; 1st week): 69.9 + 1.3 | heart rate ([4]; 1st week): 67.8 + 1.8 beat/min | average dynamic pressure ([4]; 1st week): 90.6 + 0.7 | tension period ([4]; 1st week): 104 + 2 milliseconds | lateral systolic pressure ([4]; 1st week): 116.4 + 2.1 | final systolic pressure ([4]; 1st week): 134.6 + 1.6 mm/Hg | expulsion phase ([4]; 1st week): 225 + 2 milliseconds | rate of heart relaxation ([4]; 1st week): 238 + 10 mm Hg/sec | volume of heart ejection ([4]; 1st week): 320 + 23 ml/sec | diastol. ([4]; 1st week): 543 + 21 milliseconds | involution period ([4]; 1st week): 873 + 33 | rate of pressure raise ([4]; 1st week): 1,326 + 45 mm Hg/sec | hemodynamic impact ([4]; 2nd week): 24.6 + 0.7 | pulse pressure ([4]; 2nd week): 48.6 + 1.6 | isometric contraction ([4]; 2nd week): 46 + 4 millisec. | asynchron. contraction ([4]; 2nd week): 54 + 2 | distolic pressure ([4]; 2nd week): 70.3 + 0.9 | heart rate ([4]; 2nd week): 64.3 + 1.3 beat/min | average dynamic pressure ([4]; 2nd week): 91.2 + 1.2 | tension period ([4]; 2nd week): 100 + 4 milliseconds | lateral systolic pressure ([4]; 2nd week): 118.9 + 1.7 | final systolic pressure ([4]; 2nd week): 143.5 + 1.8 mm/Hg | expulsion phase ([4]; 2nd week): 230 + 3 milliseconds | rate of heart relaxation ([4]; 2nd week): 229 + 8 mm Hg/sec | volume of heart ejection ([4]; 2nd week): 322 + 13 ml/sec | diastol. ([4]; 2nd week): 603 + 21 milliseconds | involution period ([4]; 2nd week): 933 + 42 | rate of pressure raise ([4]; 2nd week): 1,473 + 130 mm Hg/sec | hemodynamic impact ([4]; 3rd week): 24.9 + 1.5 | pulse pressure ([4]; 3rd week): 47.8 + 1.4 | isometric contraction ([4]; 3rd week): 43 + 2 millisec. | asynchron. contraction ([4]; 3rd week): 56 + 4 | distolic pressure ([4]; 3rd week): 72.3 + 1.4 | heart rate ([4]; 3rd week): 60.1 + 1.6 beat/min | average dynamic pressure ([4]; 3rd week): 92.0 + 1.8 | tension period ([4]; 3rd week): 99 + 3 milliseconds | lateral systolic pressure ([4]; 3rd week): 120.1 + 1.4 | final systolic pressure ([4]; 3rd week): 145.0 + 2.4 mm/Hg | expulsion phase ([4]; 3rd week): 232 + 4 milliseconds | rate of heart relaxation ([4]; 3rd week): 209 + 8 mm Hg/sec | volume of heart ejection ([4]; 3rd week): 374 + 14 ml/sec | diastol. ([4]; 3rd week): 669 + 14 milliseconds | involution period ([4]; 3rd week): 1000 + 42 | rate of pressure raise ([4]; 3rd week): 1,581 + 54 mm Hg/sec | hemodynamic impact ([4]; 4th week): 25.0 + 0.7 | pulse pressure ([4]; 4th week): 53.6 + 1.2 | isometric contraction ([4]; 4th week): 33 + 2 millisec. | asynchron. contraction ([4]; 4th week): 55 + 3 | distolic pressure ([4]; 4th week): 72.0 + 1.8 | heart rate ([4]; 4th week): 62.2 + 1.4 beat/min | average dynamic pressure ([4]; 4th week): 92.2 + 1.0 | tension period ([4]; 4th week): 88 + 2 milliseconds | lateral systolic pressure ([4]; 4th week): 125.6 + 0.7 | final systolic pressure ([4]; 4th week): 150.6 + 2.7 mm/Hg | expulsion phase ([4]; 4th week): 235 + 3 milliseconds | rate of heart relaxation ([4]; 4th week): 226 + 12 mm Hg/sec | volume of heart ejection ([4]; 4th week): 357 + 17 ml/sec | diastol. ([4]; 4th week): 642 + 14 milliseconds | involution period ([4]; 4th week): 965 + 21 | rate of pressure raise ([4]; 4th week): 2,030 + 68 mm Hg/sec | Arterial pressure ([4]; peroral): growth of all types of AP | Electrocardiographic findings ([4]; peroral): slight decrease of the rate of the heart's beat, disappearance of auricular and ventricular extrasystoles, reinversion of the T ripple and increase of its positive amplitude | Phase analysis of the left ventricle ([4]; peroral, during the treatment): the involution period T was definitely increased, the phase of expulsion E was reduced, the period of tension PT shortened | Improvement of patients' state ([4]; peroral, first week): considerable improvement of the patients' state of health
